This note sets out measurements from patent US9067894B1, “Compound, composition, and method of activating GIRK potassium channel and use of same for treating conditions of interest” (Vanderbilt University, priority 2013, dated 2015).

Bounds are passed on as bounds.

In general, EC50 refers to the concentration giving half of the maximal effect. The term % Inhibition denotes the share of the control response that was lost under treatment. The term inhibition denotes the change of the read-out against control, counted positive when it falls.

One assay concerns the target T1, GIRK1/4 (Homo sapiens, UniProt P48544+P48549).
T1 construct: expressed in transfected cells; host or cells: HEK-293
T1 sequence (P48549 1-501): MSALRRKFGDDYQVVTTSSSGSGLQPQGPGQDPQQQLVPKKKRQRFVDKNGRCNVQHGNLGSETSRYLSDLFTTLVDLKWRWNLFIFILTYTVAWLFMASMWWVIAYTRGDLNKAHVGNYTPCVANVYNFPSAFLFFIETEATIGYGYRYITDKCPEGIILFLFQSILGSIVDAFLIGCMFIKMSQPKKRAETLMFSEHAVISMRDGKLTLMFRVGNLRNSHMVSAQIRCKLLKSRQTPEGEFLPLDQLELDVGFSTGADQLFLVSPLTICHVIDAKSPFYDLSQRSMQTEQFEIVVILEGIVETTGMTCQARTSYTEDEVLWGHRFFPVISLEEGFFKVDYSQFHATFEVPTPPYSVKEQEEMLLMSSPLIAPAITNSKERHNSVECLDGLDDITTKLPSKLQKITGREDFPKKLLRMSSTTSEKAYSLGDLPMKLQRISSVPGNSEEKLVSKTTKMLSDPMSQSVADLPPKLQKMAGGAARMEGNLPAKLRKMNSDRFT
T1 sequence (P48544 1-419): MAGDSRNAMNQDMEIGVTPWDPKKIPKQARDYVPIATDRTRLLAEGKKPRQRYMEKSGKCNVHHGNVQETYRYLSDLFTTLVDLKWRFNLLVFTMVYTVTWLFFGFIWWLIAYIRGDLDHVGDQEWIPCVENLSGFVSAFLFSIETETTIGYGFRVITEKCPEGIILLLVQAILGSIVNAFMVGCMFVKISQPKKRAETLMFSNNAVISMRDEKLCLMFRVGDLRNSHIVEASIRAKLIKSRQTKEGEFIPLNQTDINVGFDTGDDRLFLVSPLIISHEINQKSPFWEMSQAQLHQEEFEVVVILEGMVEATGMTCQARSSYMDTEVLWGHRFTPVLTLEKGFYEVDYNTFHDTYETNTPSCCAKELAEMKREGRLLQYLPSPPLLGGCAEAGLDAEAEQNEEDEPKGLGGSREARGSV
The assay can be described thus: Thallium flux assay, HEK-293 cells expressing GIRK1/4. It counts as cell-based. The note with it: cell line GIRK1-4; average ± SEM. An excerpt: Cell Line Construction and Cell Culture. HEK-293 cells co-expressing human GIRK1/2 and rat mGlu8 were generated as previously described (Niswender et al., 2008). A HEK-293 cell line (ATCC, Manassas, Va.) expressing human GIRK1 and human GIRK2 was constructed by transfecting HEK-293 cells with GIRK1 and GIRK2 (Origene, Rockville, Md.) cloned into the pBudCE4.1 vector (Life Technologies, Carlsbad, Calif.) using FuGene 6 (Promega, Madison, Wis.) transfection reagent. Unless otherwise noted, other ion channel-expressing cells were prepared by transfecting HEK-293 cells with individual or combinations of subunits: GIRK1, pCMV6-A-BSD; GIRK2, pCMV6-A-puro; GIRK3, pCMV6-A-hygro; GIRK4, pCMV6-A-AC; Kv7.4, pIRESneo3. The Kir2.1 and hERG-expressing cell lines were made by transfecting T-REx-293 cells (Life Technologies, Carlsbad, Calif.) with Kir2.1 and Kv11.1, respectively, cloned into pcDNA5TO. Monoclonal cell lines were produced by limiting-dilution cloning of antibiotic-resistant cells and functional selection using the thallium flux assay described below. Unless otherwise noted, cells were maintained in Minimal Essential Medium, Alpha Medium (Mediatech, Manassas, Va.) supplemented with 10% fetal bovine serum (Sigma-Aldrich, Saint Louis, Mo.) and GlutaGro (Mediatech, Manassas, Va.), referred to henceforth as cell culture medium. […]

The subject of a further assay is Potassium channel KATP. The assay can be described thus: Radioligand displacement (Ricerca). It counts as binding, human. The settings on record: 10 μM.
In a further assay the target is T2, Opiate (DOP) (Homo sapiens, UniProt P41143).
T2 construct: Ricerca (contract laboratory that ran the panel)
T2 sequence (P41143 whole entry): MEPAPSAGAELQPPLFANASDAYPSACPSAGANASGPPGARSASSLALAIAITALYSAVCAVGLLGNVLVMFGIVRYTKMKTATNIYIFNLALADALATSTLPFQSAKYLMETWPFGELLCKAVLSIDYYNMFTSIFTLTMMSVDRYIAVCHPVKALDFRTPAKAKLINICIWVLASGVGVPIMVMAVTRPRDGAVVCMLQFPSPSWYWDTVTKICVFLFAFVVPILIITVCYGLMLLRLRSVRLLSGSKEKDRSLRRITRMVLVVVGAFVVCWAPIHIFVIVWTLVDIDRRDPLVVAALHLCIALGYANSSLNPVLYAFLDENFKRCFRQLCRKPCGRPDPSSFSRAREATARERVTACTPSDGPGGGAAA
The assay can be described thus: Radioligand displacement (Ricerca). It counts as binding.

Another assay concerns the target T3, Prostanoid EP4 (Homo sapiens, UniProt P35408).
T3 construct: Ricerca (contract laboratory that ran the panel)
The assay can be described thus: Radioligand displacement (Ricerca). Type of assay: binding. Background: In a radioligand displacement assay an active substance lowers the binding of a labelled ligand.

The next assay deals with T4, Endothelin ETB (Homo sapiens, UniProt P24530).
T4 construct: Ricerca
T4 sequence (P24530 27-442): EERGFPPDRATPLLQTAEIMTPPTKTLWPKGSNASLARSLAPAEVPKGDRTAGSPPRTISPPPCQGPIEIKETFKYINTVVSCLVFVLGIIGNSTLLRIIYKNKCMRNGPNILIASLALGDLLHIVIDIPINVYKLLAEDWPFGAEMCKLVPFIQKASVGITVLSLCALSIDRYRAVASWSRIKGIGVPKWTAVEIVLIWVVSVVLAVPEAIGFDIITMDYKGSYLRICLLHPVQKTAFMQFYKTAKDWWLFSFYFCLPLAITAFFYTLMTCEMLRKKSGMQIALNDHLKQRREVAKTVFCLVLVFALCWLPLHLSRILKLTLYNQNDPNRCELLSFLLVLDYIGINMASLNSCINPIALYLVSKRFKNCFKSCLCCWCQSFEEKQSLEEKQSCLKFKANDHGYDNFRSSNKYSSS
The assay can be described thus: Radioligand displacement (Ricerca). It counts as binding.

The target of a further assay is T5, Serotonin 5-HT2B (Homo sapiens, UniProt P41595).
T5 construct: Ricerca (contract panel)
T5 sequence (P41595 whole entry): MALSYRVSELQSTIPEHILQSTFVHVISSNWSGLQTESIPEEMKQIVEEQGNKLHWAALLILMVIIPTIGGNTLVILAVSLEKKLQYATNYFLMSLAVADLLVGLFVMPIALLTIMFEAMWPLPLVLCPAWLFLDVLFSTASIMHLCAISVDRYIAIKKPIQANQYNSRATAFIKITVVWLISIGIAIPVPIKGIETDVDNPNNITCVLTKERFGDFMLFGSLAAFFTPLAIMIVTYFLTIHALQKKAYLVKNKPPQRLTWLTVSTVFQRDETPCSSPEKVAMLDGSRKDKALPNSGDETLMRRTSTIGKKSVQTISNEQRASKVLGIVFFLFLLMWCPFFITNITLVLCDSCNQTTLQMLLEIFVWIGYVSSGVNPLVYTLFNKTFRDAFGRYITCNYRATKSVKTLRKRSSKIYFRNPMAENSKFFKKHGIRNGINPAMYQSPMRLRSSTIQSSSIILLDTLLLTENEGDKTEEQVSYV
The assay can be described thus: Radioligand displacement (Ricerca). It counts as binding.

Assay [1] has as its target T6, Glutamate (NMDA, glycine) (Rattus norvegicus, UniProt P35439).
T6 construct: Ricerca
Put plainly: Radioligand displacement (Ricerca). Type of assay: binding.

The next assay has as its target T7, Histamine H2 (Homo sapiens, UniProt P25021).
T7 construct: Ricerca (contract laboratory that ran the panel)
The assay can be described thus: Radioligand displacement (Ricerca). Type of assay: binding.

T7 sequence (P25021 whole entry): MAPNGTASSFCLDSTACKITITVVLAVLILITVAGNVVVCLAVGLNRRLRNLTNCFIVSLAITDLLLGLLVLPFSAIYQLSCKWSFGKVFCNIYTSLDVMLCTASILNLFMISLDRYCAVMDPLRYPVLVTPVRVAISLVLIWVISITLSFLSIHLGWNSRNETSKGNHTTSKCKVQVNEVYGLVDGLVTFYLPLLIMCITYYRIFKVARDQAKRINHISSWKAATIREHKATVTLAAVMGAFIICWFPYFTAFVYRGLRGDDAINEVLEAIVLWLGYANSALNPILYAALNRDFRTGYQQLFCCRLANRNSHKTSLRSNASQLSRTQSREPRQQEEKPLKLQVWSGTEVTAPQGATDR
T3 sequence (P35408 whole entry): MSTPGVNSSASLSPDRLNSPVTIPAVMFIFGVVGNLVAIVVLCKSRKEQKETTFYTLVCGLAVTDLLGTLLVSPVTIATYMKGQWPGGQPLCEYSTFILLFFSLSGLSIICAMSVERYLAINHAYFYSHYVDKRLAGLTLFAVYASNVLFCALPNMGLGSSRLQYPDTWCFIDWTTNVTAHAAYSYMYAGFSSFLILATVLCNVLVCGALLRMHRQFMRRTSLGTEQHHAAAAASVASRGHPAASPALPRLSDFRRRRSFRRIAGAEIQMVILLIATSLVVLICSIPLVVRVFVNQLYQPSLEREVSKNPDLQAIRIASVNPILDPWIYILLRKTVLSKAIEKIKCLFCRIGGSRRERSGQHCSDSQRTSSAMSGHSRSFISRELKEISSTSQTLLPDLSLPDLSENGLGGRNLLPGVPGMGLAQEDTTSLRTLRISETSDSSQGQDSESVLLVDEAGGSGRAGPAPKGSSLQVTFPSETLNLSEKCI

With `Cc1cc(NC(=O)Nc2ccc(F)c(F)c2)n(-c2ccccc2)n1` [VU0456810, 1-(3,4-difluorophenyl)-3-(3-methyl-1-phenyl-1H-pyrazol-5-yl)urea], at GIRK1/4, the EC50 turned out to be 887 ± 266 nM. Also, the “EC50 Thallium Flux” value at GIRK1/4 is “able to activate”. For the same compound, the “% Inhibition” value was 2% in the assay with Potassium channel KATP and 46% on Serotonin 5-HT2B (10 μM). Besides, the inhibition at 10 µM is -4% at Opiate (DOP); -4% at Prostanoid EP4; 3% on Endothelin ETB; < 50% on Serotonin 5-HT2B; -25% in assay [1]; -2% on Histamine H2.
